{"source": "patent US20040192625A1", "about": "“Adrenergic receptor overexpression in airway tissues for the treatment of airway obstructive diseases” (priority 2000, published 2004)", "key": {"[1]": {"tested_on": "tracheal rings", "test": "Ex vivo tracheal ring contractility / relaxation (organ bath)", "quoted_text": "Ex vivo assessment of airway function in transgenic and nontransgenic mice. Tracheal contractility was measured using ring preparations that were mounted on wires connected to pressure transducers and immersed in organ baths. The absolute contractile force evoked by acetylcholine is shown in (A). […] Rings were pre-contracted to the same extent with 10 μM acetylcholine for these studies. […] Curves shown represent the mean±SE of data generated from four different mice in each group.\nEx vivo Smooth Muscle Studies. […] Briefly, tracheas were excised and dissected free of surrounding tissues and cut into rings of approximately 5 mm in length. The trachea rings were mounted on stainless steel wires connected to isometric force transducers. […] Each tracheal ring was stretched to a tension of 5 mN, an optimal passive tension for maximizing active force (27). After a 20 min equilibration period, contraction/relaxation cycles with 10 μM acetylcholine were performed until consistent forces were observed. Cumulative concentration-isometric force curves were then generated to acetylcholine (1 nM-30 μM). After rinsing, tracheas were contracted with 10 μM acetylcholine (approximately the ED80) and cumulative concentration-relaxation curves were generated to isoproterenol (30 pM-10 μM). Concentration-response relations were fitted to a logistic equation (26)."}, "[2]": {"tested_on": "airway responsiveness in conscious, unrestrained mice", "test": "In vivo airway responsiveness to methacholine by whole body plethysmography (Penh)", "parameters": "species or system mouse", "settings": "for maximal Penh to methacholine after albuterol pretreatment: aerosolized albuterol 0.1 mg/ml for 20 min; for maximal Penh (bronchoconstriction induced by methacholine): no pretreatment", "protocol": "FIG. 9. In vivo measurement of airway hyperreactivity in conscious, unrestrained mice. Airway responsiveness to methacholine was assessed using a rodent whole body plethysmography system to measure Penh (see EXPERIMENTAL PROCEDURES). The mice were first treated with aerosolized PBS to establish baseline function, which was then followed by increasing doses of aerosolized methacholine. On a separate day, the same mice were first pretreated with aerosolized albuterol (0.1 mg/ml) for 20 min. Penh values are reported as percent of the PBS (baseline) value. Bronchoconstriction was greatest in the untreated, NTG control mice (n=12) with a maximal increase in Penh of 558±42%. Pretreatment with albuterol lowered the maximal increase in Penh to 373±33% (p<0.02). The maximum Penh achieved in the transgenic mice (250±26%, n=9) was less than that of both the untreated (p<0.001) and the pretreated NTG mice (p<0.02).\nIn Vivo Airway Physiology. Airway responsiveness to methacholine was measured noninvasively in conscious, unrestrained mice using a whole body plethysmograph (Buxco Electronics, Troy N.Y.) (28). Using this system, the volume changes that occur during a normal respiratory cycle are recorded as the pressure difference between the animal-containing chamber and a reference chamber. The resulting signal is used to calculate respiratory frequency, minute volume, tidal volume, and enhanced pause (Penh). Penh is a unitless value that is a function of the peak inspiratory (PIP) and peak expiratory (PEP) pressures and the timing of expiration and is calculated as: […]\nwhere Pause is the ratio of time spent in the last third of expiration relative to early expiration. […] Mice were placed in the chamber and allowed to adjust to their surroundings for 10 min. They were then exposed to aerosolized PBS (to establish baseline), followed by increasing concentrations of methacholine (2.5 to 80 mg/ml). Aerosolization was for 3 min and respiratory measurements were recorded and averaged for the subsequent 5 min after each dose. The degree of bronchoconstriction was expressed as the percent change in Penh relative to the PBS baseline. On a separate day, the mice were submitted to the same protocol except that they were first treated with aerosolized albuterol (0.1 mg/ml) for 20 min. The concentration-response data for each individual mouse were fit to a sigmoid curve by an iterative least squares technique, and the dose of methacholine required to double baseline Penh (ED200) was derived."}, "[3]": {"tested_on": "adenylyl cyclase", "test": "Adenylyl cyclase activity in tracheal smooth muscle cell membranes", "assay_type": "biochemical, mouse", "settings": "for maximal isoproterenol stimulated adenylyl cyclase activity: 10 μM isoproterenol, n=4", "protocol": "(§1) FIG. 7. cAMP production and adenylyl cyclase activity in isolated tracheal smooth muscle cells. […] Results are from four independent experiments. (B) Adenylyl cyclase activity was measured in membranes prepared from tracheal smooth muscle cells of transgenic and nontransgenic mice. Reactions were carried out in the presence of the indicated concentrations of isoproterenol for 10 min at 37° C. Detection of [^32P]cAMP produced was determined by column chromatography. Shown is a representative dose response curve.\nRadioligand Binding and cAMP Studies. To prepare membranes from lung tissue, lungs from an individual mouse were homogenized with a Polytron (Brinkman) in 10 ml of hypotonic lysis buffer (5 mM Tris, pH 7.4, 2 mM EDTA) containing the protease inhibitors leupeptin, aprotinin, benzamidine and soybean trypsin inhibitor (10 μg/ml each). Detached smooth muscle cells from primary cultures were processed similarly. Homogenates were centrifuged at 40,000×g for 10 min at 4° C. […] Competition data were fit to a two-site model when this fit was statistically (p<0.05) better than a one-site fit by F-test, using Prizm software (GraphPad, San Diego Calif.). Receptor density on the cell surface was assessed using methods previously described (24). […] After trypsin activity was neutralized by the addition of FCS, the cells were washed with PBS and resuspended in DMEM. […] Binding to receptors localized throughout the cell was defined as that displaced by propranolol, while cell surface binding was defined as that displaced by CGP12177 (24). Bound radioactivity was separated by filtration and washing over GF/C glass fiber filters. Cyclic AMP content of attached mouse smooth muscle cells in culture exposed to 10 µM isoproterenol or carrier for 10 min was measured by an acetylated radioimmunoassay method as described (19). Adenylyl cyclase activity was measured in membranes prepared as above using column chromatography as previously described (25)."}, "[4]": {"target": "β2AR (Mus musculus, UniProt P18762)", "sequence (P18762 whole entry)": "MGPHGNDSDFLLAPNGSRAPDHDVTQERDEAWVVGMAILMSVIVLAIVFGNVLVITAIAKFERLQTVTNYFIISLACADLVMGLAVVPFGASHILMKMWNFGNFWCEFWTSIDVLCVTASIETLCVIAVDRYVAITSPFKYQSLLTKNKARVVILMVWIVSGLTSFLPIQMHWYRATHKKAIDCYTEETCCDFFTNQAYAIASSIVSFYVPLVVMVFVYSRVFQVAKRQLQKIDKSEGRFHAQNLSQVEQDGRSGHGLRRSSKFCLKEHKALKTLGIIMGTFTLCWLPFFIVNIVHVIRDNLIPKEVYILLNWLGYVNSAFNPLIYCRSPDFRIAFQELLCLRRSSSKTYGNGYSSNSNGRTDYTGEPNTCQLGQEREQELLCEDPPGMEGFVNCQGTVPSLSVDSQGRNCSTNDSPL", "protocol": "as §1\nRadioligand Binding and cAMP Studies. To prepare membranes from lung tissue, lungs from an individual mouse were homogenized with a Polytron (Brinkman) in 10 ml of hypotonic lysis buffer (5 mM Tris, pH 7.4, 2 mM EDTA) containing the protease inhibitors leupeptin, aprotinin, benzamidine and soybean trypsin inhibitor (10 μg/ml each). […] Receptor density on the cell surface was assessed using methods previously described (24). […] Bound radioactivity was separated by filtration and washing over GF/C glass fiber filters. Cyclic AMP content of attached mouse smooth muscle cells in culture exposed to 10 µM isoproterenol or carrier for 10 min was measured by an acetylated radioimmunoassay method as described (19). Adenylyl cyclase activity was measured in membranes prepared as above using column chromatography as previously described (25)."}, "[5]": {"tested_on": "β2AR", "settings": "membranes from nontransgenic cells, absence of GTP", "protocol": "Radioligand Binding and cAMP Studies. To prepare membranes from lung tissue, lungs from an individual mouse were homogenized with a Polytron (Brinkman) in 10 ml of hypotonic lysis buffer (5 mM Tris, pH 7.4, 2 mM EDTA) containing the protease inhibitors leupeptin, aprotinin, benzamidine and soybean trypsin inhibitor (10 μg/ml each). Detached smooth muscle cells from primary cultures were processed similarly. Homogenates were centrifuged at 40,000×g for 10 min at 4° C. […] Competition data were fit to a two-site model when this fit was statistically (p<0.05) better than a one-site fit by F-test, using Prizm software (GraphPad, San Diego Calif.). Receptor density on the cell surface was assessed using methods previously described (24). […] After trypsin activity was neutralized by the addition of FCS, the cells were washed with PBS and resuspended in DMEM. […] Bound radioactivity was separated by filtration and washing over GF/C glass fiber filters. Cyclic AMP content of attached mouse smooth muscle cells in culture exposed to 10 µM isoproterenol or carrier for 10 min was measured by an acetylated radioimmunoassay method as described (19). Adenylyl cyclase activity was measured in membranes prepared as above using column chromatography as previously described (25)."}, "[6]": {"target": "stimulatory guanine nucleotide binding protein (Gs) (mouse) (UniProt P63094)", "sequence (P63094 2-394)": "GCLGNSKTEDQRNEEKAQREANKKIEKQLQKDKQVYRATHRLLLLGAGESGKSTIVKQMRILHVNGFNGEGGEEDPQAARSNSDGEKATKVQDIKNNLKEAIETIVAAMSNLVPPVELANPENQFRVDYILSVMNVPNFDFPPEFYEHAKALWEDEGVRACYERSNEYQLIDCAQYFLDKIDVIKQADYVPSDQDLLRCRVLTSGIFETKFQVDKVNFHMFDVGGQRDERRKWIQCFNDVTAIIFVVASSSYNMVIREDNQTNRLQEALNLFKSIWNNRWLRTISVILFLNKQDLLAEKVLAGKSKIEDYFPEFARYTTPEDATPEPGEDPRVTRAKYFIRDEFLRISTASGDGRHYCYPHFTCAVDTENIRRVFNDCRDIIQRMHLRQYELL", "test": "cell-based or functional assay"}}, "note": "Values joined by “and” are separate entries in the source; they are usually repeats but may differ in a detail not shown here. Equal values may be shown once. “Also recorded” adds a separate entry of the source."}
{"molecule": "Cc1ccc(OCC(O)C(C)NC(C)C)c2c1CCC2", "note": "(stereo not drawn) [ICI 118,551]", "values": [{"measurement": "effect on enhanced isoproterenol-induced relaxation in SMP8-β2AR mice", "setting": "[1]; pretreatment 0.1 μM", "result": "blocked; also recorded: abolished"}]}
{"molecule": "CC(C)(C)NCC(O)c1ccc(O)c(CO)c1", "note": "(stereo not drawn) [albuterol]", "values": [{"measurement": "methacholine-induced increase in Penh after albuterol pretreatment", "setting": "[2]; SMP8-β2AR mice, methacholine up to 80 mg/ml", "result": "no increase in Penh; also recorded: no methacholine-induced bronchoconstriction was observed"}, {"measurement": "maximal Penh to methacholine after albuterol pretreatment", "setting": "[2]; SMP8-β2AR transgenic mice", "result": "146±12 % of baseline and 138±11 % of baseline"}, {"measurement": "maximal Penh to methacholine after albuterol pretreatment", "setting": "[2]; nontransgenic mice", "result": "373±33 % of baseline"}]}
{"molecule": "CC(C)NCC(O)c1ccc(O)c(O)c1", "note": "(stereo not drawn) [isoproterenol]", "values": [{"measurement": "maximal Penh to methacholine after acute albuterol in mice pretreated with isoproterenol", "setting": "[2]; SMP8-β2AR transgenic mice, isoproterenol by osmotic minipump for three continuous days", "result": "128±1 % of baseline"}, {"measurement": "percent isoproterenol stimulation of adenylyl cyclase over basal", "setting": "[3]; nontransgenic membranes", "result": "~46", "unit": "%"}, {"measurement": "maximal isoproterenol stimulated adenylyl cyclase activity", "setting": "[3]; nontransgenic membranes", "result": "251 ± 7.3", "unit": "pmol/min/mg"}, {"measurement": "percent isoproterenol stimulation of adenylyl cyclase over basal", "setting": "[3]; transgenic membranes", "result": "~125", "unit": "%"}, {"measurement": "maximal isoproterenol stimulated adenylyl cyclase activity", "setting": "[3]; transgenic membranes", "result": "609 ± 74.7", "unit": "pmol/min/mg"}, {"measurement": "maximal extent of relaxation, transgenic vs nontransgenic rings", "setting": "[1]; isoproterenol, rings pre-constricted with 10 μM acetylcholine", "result": "equivalent"}, {"measurement": "isoproterenol-stimulated cAMP content", "setting": "[4]; nontransgenic airway smooth muscle cells, 10 min, n=5", "result": "2.05 ± 0.10", "unit": "pmol/mL"}, {"measurement": "isoproterenol-stimulated cAMP, percent-stimulation over basal", "setting": "[4]; nontransgenic cells", "result": "~50", "unit": "%"}, {"measurement": "proportion of receptors in the high affinity state (% RH)", "setting": "[5]", "result": "36±6.7", "unit": "%"}]}
{"molecule": "CC(=O)OC(C)C[N+](C)(C)C", "note": "(stereo not drawn) [methacholine]", "values": [{"measurement": "maximal Penh (bronchoconstriction induced by methacholine)", "setting": "[2]; SMP8-β2AR transgenic mice, n=9", "result": "250±26 % of baseline"}, {"measurement": "ED200 (dose of methacholine required to double baseline Penh)", "setting": "[2]; SMP-β2AR mice", "result": "35.7 ± 10.6", "unit": "mg/mL"}, {"measurement": "ED200 (dose of methacholine required to double baseline Penh)", "setting": "[2]; nontransgenic mice", "result": "12.1 ± 1.90", "unit": "mg/mL"}, {"measurement": "maximal Penh (bronchoconstriction induced by methacholine)", "setting": "[2]; nontransgenic mice, n=12", "result": "558±42 % of baseline"}]}
{"molecule": "endogenous β-adrenergic receptor of tracheal smooth muscle cells from nontransgenic mice (from UniProt P18762 1-418)", "values": [{"measurement": "proportion of receptors in the high affinity state (% RH), isoproterenol competition of [125I]CYP binding in the absence of GTP", "setting": "[6]", "result": 36, "unit": "%"}]}
